Experimental findings from article PMC7806715, “Discovery of small molecules targeting the tandem tudor domain of the epigenetic factor UHRF1 using fragment-based ligand discovery” (Scientific Reports, 2021) are described below.

The target in assay [1] is T1, His6-UHRF1-full length vs. H3K9me3 peptide (Homo sapiens, UniProt Q96T88).
T1 construct: made in house; host or cells: Rosetta (DE3) E. coli, pMCSG7
T1 sequence (Q96T88 1-793): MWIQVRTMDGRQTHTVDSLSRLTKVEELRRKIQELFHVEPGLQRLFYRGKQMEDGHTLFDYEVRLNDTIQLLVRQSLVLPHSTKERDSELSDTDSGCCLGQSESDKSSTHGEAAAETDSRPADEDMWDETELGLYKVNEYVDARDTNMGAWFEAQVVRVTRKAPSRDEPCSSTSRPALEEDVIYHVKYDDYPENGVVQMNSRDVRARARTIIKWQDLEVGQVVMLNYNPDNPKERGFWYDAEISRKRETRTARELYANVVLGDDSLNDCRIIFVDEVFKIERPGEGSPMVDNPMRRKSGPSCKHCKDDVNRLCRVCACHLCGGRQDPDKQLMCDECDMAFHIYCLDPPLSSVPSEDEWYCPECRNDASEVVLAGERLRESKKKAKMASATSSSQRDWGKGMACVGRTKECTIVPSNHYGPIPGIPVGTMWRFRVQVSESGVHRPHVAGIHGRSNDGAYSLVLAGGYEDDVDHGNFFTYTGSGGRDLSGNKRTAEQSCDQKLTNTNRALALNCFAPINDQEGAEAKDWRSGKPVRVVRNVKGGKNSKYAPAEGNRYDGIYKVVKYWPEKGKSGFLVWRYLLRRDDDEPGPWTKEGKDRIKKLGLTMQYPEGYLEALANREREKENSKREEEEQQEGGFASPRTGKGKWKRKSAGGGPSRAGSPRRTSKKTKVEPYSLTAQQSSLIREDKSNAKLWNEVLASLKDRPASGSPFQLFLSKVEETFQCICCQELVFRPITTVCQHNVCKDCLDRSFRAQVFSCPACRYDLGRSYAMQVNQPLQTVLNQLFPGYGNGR
As to the kind of experiment: TR-FRET assay: His6-UHRF1-FL binding to H3K9me3 peptide. The format is biochemical. As to conditions: dose-response, side by side with His6-TTD. On the procedure: The fragment screen was carried out on low volume 384-well white plates (Corning 4512) and the assay was performed at room temperature. The TR-FRET reagent mix contained 200 nM of biotinylated-H3K9me3 peptide (Anaspec), 250 nM of His6-TTD, 25 nM of streptavidin-d2 (CisBio), and 1 × anti-6His-Tb cryptate Gold (Cisbio) in TR-FRET buffer (50 mM sodium phosphate, pH 7, 150 mM NaCl, 1 mM DTT, and 0.1% Triton-X-100). During the screen, 5 μl of TR-FRET reagent mix was dispensed into each well, and 100 nl of chemical fragments stock (10 mM in DMSO) was added to each well by pintool using Tecan Freedom Evo liquid handler to make the final compound concentration 196 μM. After 1 h of incubation, the fluorescent signals at 665 nm and 620 nm of each plate were measured by the Tecan Infinite M1000 plate reader (excitation 340 nm, 60 μs lag time, and 500 μs integration time) and the TR-FRET signal was calculated by the ratio of 665 nm/620 nm fluorescent signal. For the fragment screen, on seven of the library plates there were 32-wells of DMSO control, while there were 8-wells of DMSO control in the last plate. The TR-FRET assays for the interactions between His6-TTD-PHD and His6-UHRF1-FL binding to biotinylated-H3K9me3 (1-20) peptide were similar to the assay for His6-TTD. […]

Another assay has as its target T2, UHRF1-TTD (Homo sapiens, UniProt Q96T88).
T2 construct: Using the isolated His6-TTD (aa 123–283) we performed a thermal shift assay; His6 (N, cleaved yes); made in house; host or cells: Rosetta (DE3) E. coli, pMCSG7
T2 sequence (Q96T88 123-283): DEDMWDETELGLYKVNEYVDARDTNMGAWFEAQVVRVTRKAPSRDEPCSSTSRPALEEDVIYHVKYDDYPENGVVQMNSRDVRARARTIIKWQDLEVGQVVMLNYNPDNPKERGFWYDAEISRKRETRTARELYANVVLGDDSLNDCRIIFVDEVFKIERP
As to the kind of experiment: Thermal shift assay (TSA) of TTD. It counts as binding. Conditions: compound at 500 μM; untagged TTD, 150 mM NaCl; mean ± S.D., n=3. On the procedure:
We used three different assays in parallel to screen a ~ 2300-fragment library to identify hits that bind to TTD or inhibit its activities. The first screening method was a direct binding assay, which generally serves as the basis for most fragment screening. Using the isolated His6-TTD (aa 123–283) we performed a thermal shift assay (TSA) to determine the change in melting temperature upon fragment binding. The change in protein melting temperature (ΔTm) caused by each fragment was calculated by comparison to the DMSO controls on the same plate.
The fragment screen was carried out on LightCycler 480 Multiwell Plates 384 (Roche). The TSA mix contains 0.15 mg/ml of His6-TTD, 10 × of SYPRO Orange dye (ThermoFisher) in the TSA buffer (50 mM sodium phosphate, pH = 7, 300 mM NaCl). During the screen, 5 µl of TSA mix was dispensed into each well, and 100 nl of chemical fragments stock (10 mM in DMSO) was added to each well by pintool using Tecan Freedom Evo liquid handler to make the final compound concentration 200 µM. After 1 h of incubation at room temperature, the increase of fluorescence at 580 nm (excitation 465 nm) during the 20–90 degree melting (0.04 °C/s) was measured by LightCycler 480 Instrument II (Roche). For the fragment screen, on seven of the library plates there were 32-wells of DMSO control, while there were 8-wells of DMSO control in the last plate. […] Using un-tagged TTD for TSA provide closer resemblance to the native state of TTD. The lower salt concentration (150 mM NaCl) also allowed better comparison across three different assays during the dose-dependent SAR studies as both AlphaScreen and TR-FRET assay also use buffers containing 150 mM NaCl.

Molecules are shown by their SMILES.

For the compound `Cc1ccnc(C)c1` [2,4-lutidine], the “inhibition of His6-UHRF1-FL interaction with H3K9me3 peptide (in words)” value in assay [1] is given as “only weakly inhibits”. Moreover, the ΔTm at 500 µM on UHRF1-TTD was 2.04 ± 0.01 °C.
